According to patent US9989535B2, “Methods and reagents for analyzing protein-protein interfaces” (Warp Drive Bio, Inc., priority 2015, dated 2018):

Columns and labels:
[1] = biological target: T1, PTP1BS187C lite/FKBP12 (Homo sapiens, UniProt P18031+P62942, C121S/C32S/C92V/S187C); test: Ternary complex formation by SEC and SDS-PAGE; format: binding; conditions: SEC profile and SDS-PAGE of elution peaks
T1 construct: residues 1-293 containing C32S/C92V/C121S/S187C; made in house
Procedure: A 1:2:2 molar ratio of compound, presenter protein, and target protein are mixed together in 12.5 mM HEPES pH 7.4, 75 mM NaCl buffer containing 2% DMSO. The reaction is incubated at 37° C. for 30 min, followed by overnight incubation at room temperature. Pure complex is isolated by Size Exclusion Chromatography (SEC) purification. The reaction mixture is directly injected on a Superdex 75 column (CV 120 mL) pre-equilibrated with buffer containing 12.5 mM HEPES pH 7.4, 75 mM NaCl. Complex elutes at a higher molecular weight than unreacted target protein and presenter protein. To confirm presence of complex in the elution peak, samples are assessed by SDS-PAGE.
Experimental Protocol: A 1:3:3 molar ratio of C3-SLF, FKBP12, and PTP1BS187C lite are mixed together in 12.5 mM HEPES pH 7.4, 75 mM NaCl buffer containing 4% DMSO. The reaction is incubated at 37° C. for 30 min, followed by overnight incubation at room temperature. Pure complex is isolated by Size Exclusion Chromatography (SEC) purification. The reaction mixture is directly injected on a Superdex 75 column (CV 120 mL) pre-equilibrated with buffer containing 12.5 mM HEPES pH 7.4, 75 mM NaCl. […] To confirm the presence of PTP1BS187C lite and FKBP12 in the elution peak, samples are also assessed by SDS-PAGE. […]

[2] = biological target: T2, KRASGTP/G12C (Homo sapiens, UniProt P01116+P62942, G12C); test: Disulfide cross-linking efficiency by mass spectrometry, with or without FKBP12; format: binding; conditions: 2 μM KRAS, 10 μM ligand, 4 hours RT, MS
T2 construct: KRASGTP/G12C (in-house, residues 1-169); made in house
Procedure: Experimental protocol: In order to follow the kinetics of disulfide crosslinking reactions, Agilent 6230 TOF-LC/MS and Agilent 1260 HPLC instruments employing a AdvanceBio RP-mAb C4 column (2.1×100 mm, 3.5 μm) and equipped with an auto-sampler were used. HPLC grade acetonitrile and water (each containing 1.0 mM ammonium formate and 1% formic acid by volume) were used as mobile phase with the following ramp: 0.6 ml/min flow rate, water:acetonitrile=95:5 from 0.0 to 13.0 min ramping to water:acetonitrile=5:95 from 13.0 to 17.0 min. Total time=17.0 min.
All crosslinking reactions were performed in 1.5 mL amber colored glass vials equipped with 0.5 mL glass inserts. A water-soluble peptide (SEQ ID NO: 1: […]) was employed as an internal standard. Although the actual sequence of the internal standard is inconsequential, choice of amino acid residues were critical to avoid interference in the crosslinking assays. […] All reactions and standard solutions were prepared in HEPES (pH 7.4, 1.0 mM MgCl2) buffer.
Prior to every reaction, a standard curve was obtained for the individual components using a series of standard solutions (an example of standard curve analysis for FKBP12 is shown in Table 3 below). Using the data from standard curve, μmol of protein samples were plotted against the ratio of areas (sample:std) and a linear fit (y=mx+c) was employed to obtain the slope and intercept. The value of slope and intercept involved in these standard curves were accounted for during evaluation of the substrate and product concentration before and during the course of the reaction. For every substrate/product, an initial injection was followed up by a blank injection to verify presence of any residual protein/reagents. Based on this analysis the sequence of auto-sampler can be adjusted to included appropriate number of blank injections for removal of residual components, if any. The MS spectra were analyzed using Agilent MassHunter v B.07.0 software.
In a representative experiment to assess the presenter dependency of ligand cross-linking on the target protein, KRASGTP/G12C and either C3- or C4-SLF ligand were incubated in the presence or absence of FKBP12 at concentrations of 2 μM KRAS, 10 μM FKBP12, 10 μM C3- or C4-SLF for 4 hours at room temperature in 12.5 mM HEPES pH 7.4, 75 mM NaCl, 1 mM MgCl2, 3% DMSO. Analysis of the amount of KRAS undergoing disulfide cross-linking with the ligand using the method above.

[3] = biological target: T2, KRASGTP/G12C; test: Cross-linking gel shift assay (12% SDS-PAGE), with or without FKBP12; format: binding; conditions: 60 μM KRAS, 180 μM FKBP12, 180 μM ligand, quenched by MMTS
Procedure: In parallel to mass spectrometry analysis, cross-linking reactions with C3- or C4-SLF were subjected to gel shift assay using 12% SDS-PAGE in the presence or absence of FKBP12 at the same experimental condition described above except that cross-linking reactions were set up at higher concentrations (60 μM KRAS, 180 μM FKBP12, and 180 μM C3- or C4-SLF) and they were quenched by MMTS to terminate the reaction.

[4] = biological target: T3, FKBP12-PTP1BS187C (Homo sapiens, UniProt P18031+P62942, C121S/C32S/C92V/S187C); test: Crystal structure of FKBP12-C3SLF-PTP1BS187C ternary complex
T3 construct: residues 1-293 containing C32S/C92V/C121S/S187C; made in house
Procedure: Experimental Protocol: […] and FKBP12 were added to PTP1B[…] lite at 3:1 molar excess in 12.5 mM HEPES pH 7.4, 75 mM NaCl buffer, 4% DMSO, and incubated 36-72 hours at 4° C. Pure complex was isolated by size exclusion chromatography on a Superdex 75 column in 12.5 mM HEPES pH 7.4 and 75 mM NaCl. Purified complex (at 15 mg/ml) was subjected to crystallization screening at 20° C. using sitting drop vapor diffusion method. Crystals were grown in a well solution containing 0.2 M Magnesium Acetate, 20% w/v PEG 3350. For data collection, crystals were transferred to a solution containing mother liquor supplemented with 25% PEG400, and then frozen in liquid nitrogen. Diffraction datasets were collected at the Advanced Photon Source (APS) and processed with the XDS program. Molecular replacement solutions were obtained using the program PHASER in the CCP4 suite, using the published structure of FKBP12 (PDB-ID 2PPN) and PTP1B (PDB-ID 2NT7) as search models. Subsequent model building and refinement were performed according to standard protocols with the software packages CCP4 and COOT.

[5] = biological target: MCL1S245C/FKBP52 (Homo sapiens, UniProt Q02790+Q07820, C286S/S245C); test: Crystal structure of MCL1S245C/C3SLF/FKBP52 ternary complex; conditions: 3.0 Å
Procedure: Experimental Protocol: […] and FKBP52 were mixed with MCL1[…] lite at 3:1 molar excess in 12.5 mM HEPES pH 7.4, 75 mM NaCl buffer, 2% DMSO, and incubated 24-48 hours at 4° C. Pure complex was isolated by size exclusion chromatography on a Superdex 75 column in 12.5 mM HEPES pH 7.4 and 75 mM NaCl. Purified complex (at 15 mg/ml) was subjected to crystallization screening at 20° C. using sitting drop vapor diffusion method. Crystals were grown in a well solution containing 2.1 M Malic acid. For data collection, crystals were transferred to a solution containing mother liquor supplemented with 20% glycerol, and then flash-frozen in liquid nitrogen. 3.0 Å resolution diffraction dataset was measured at the Advanced Photon Source (APS) and processed with the XDS program. Molecular replacement solutions were obtained using the program PHASER in the CCP4 suite, using the published structure of FKBP52 (PDB-ID 1N1A) and […] (PDB-ID 3MK8) as search models. Subsequent model building and refinement were performed according to standard protocols with the software packages CCP4 and COOT.

Sequence of MCL1S245C/FKBP52 (Q07820 172-327 S245C/C286S): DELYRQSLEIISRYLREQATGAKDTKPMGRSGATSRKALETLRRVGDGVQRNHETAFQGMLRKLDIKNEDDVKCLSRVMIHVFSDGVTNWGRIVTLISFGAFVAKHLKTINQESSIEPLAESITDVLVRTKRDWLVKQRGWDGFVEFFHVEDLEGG
Sequence of MCL1S245C/FKBP52 (Q02790 1-140): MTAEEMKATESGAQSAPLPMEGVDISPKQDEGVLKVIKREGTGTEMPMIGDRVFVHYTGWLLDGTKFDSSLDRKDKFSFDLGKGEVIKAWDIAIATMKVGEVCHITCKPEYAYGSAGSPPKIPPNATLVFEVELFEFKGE
T3 sequence (P18031 1-293 C32S/C92V/C121S/S187C limits assumed): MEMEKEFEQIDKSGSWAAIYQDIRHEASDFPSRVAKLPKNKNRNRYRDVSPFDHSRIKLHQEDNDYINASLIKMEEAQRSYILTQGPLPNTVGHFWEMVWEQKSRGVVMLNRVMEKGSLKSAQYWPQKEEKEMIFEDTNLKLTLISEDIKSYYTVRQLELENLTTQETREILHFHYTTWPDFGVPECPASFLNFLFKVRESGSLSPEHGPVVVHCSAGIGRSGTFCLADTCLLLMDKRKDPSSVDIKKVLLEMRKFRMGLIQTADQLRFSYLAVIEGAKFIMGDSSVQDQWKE
T3 sequence (P62942 whole entry, the tested form may be a part): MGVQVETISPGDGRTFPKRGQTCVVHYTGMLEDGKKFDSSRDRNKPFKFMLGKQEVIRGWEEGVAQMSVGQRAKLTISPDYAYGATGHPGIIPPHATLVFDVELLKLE
T1 sequence (P18031 1-293 C32S/C92V/C121S/S187C limits assumed): as the sequence (P18031 1-293 C32S/C92V/C121S/S187C limits assumed) above
T1 sequence (P62942 whole entry, the tested form may be a part): as the sequence (P62942 whole entry, the tested form may be a part) above

## CCC(C)(C)C(=O)C(=O)N1CCCC[C@H]1C(=O)O[C@H](CCc1ccc(OC)c(OC)c1)c1cccc(NC(=O)CCSSc2ccccn2)c1 [Compound C3-SLF, (R)-3-(3,4-dimethoxyphenyl)-1-(3-(3-(pyridin-2-yldisulfanyl)propanamido)phenyl)propyl (S)-1-(3,3-dimethyl-2-oxopentanoyl)piperidine-2-carboxylate]
[1]
  Formation of PTP1BS187C lite/C3-SLF/FKBP12 complex: confirm the formation
[2]; FKBP12 absent (−)
  % × link to KRAS: 9.6%
[2]; FKBP12 present (+) 10 μM
  % × link to KRAS: 47.5%
[3]
  Ligand cross-linking efficiency in the presence of FKBP12, gel shift: boosted significantly
[4]
  Buried surface area of ligand: 615 Å^2
[5]
  Buried surface area of the complex contributed by ligand: 606 Å2
